# Source: patent publication US20220280594A1, “APPLICATION OF POLYPEPTIDE OR DERIVATIVE THEREOF” (CHENGDU HUITAI BIOMEDICINE CO., LTD., priority 2019, published 2022)
# Ends that are not written are not given here. PEG = not defined here
# System: human pancreatic cancer cells (PANC-1) subcutaneous xenograft
# Assay: pancreatic cancer subcutaneous xenograft animal model, intratumoral injection
# Type: in vivo, mice (BALB/c-nu/nu)
# Details: PANC-1 xenograft, intratumoral 5 mg/kg once every other day, 25 days; for Weight of tumor (g) (mean ± SD): control 1.2 ± 0.11; for Volume of tumor (mm^3) (mean ± SD): control 1431.72 ± 174.33
# Protocol: Experimental animals: 4-6 weeks old female immunodeficiency mice (BALB/c-nu/nu, Beijing Vital River Laboratory Animal Technology Co., Ltd.).
# Subcutaneous xenograft animal model. The number of cells inoculated subcutaneously vin mice was about 2×10^6/200 μL. When the volume of the subcutaneous tumor was greater than 100 mm^3, the mice were randomly divided into groups and subjected to treatment. When the mass volume of the tumors in model control group reached 2000 mm^3 or the animal dies, the treatment ended. The animals were dissected, the tumors were taken out, and the weight and volume of the tumors were measured. During the period of the entire experiment, the mice were observed and the body weight was measured every other day.
# The method used in the efficacy test on the pancreatic cancer subcutaneous xenograft animal model was as described in Example 5. The pancreatic cancer cells were human pancreatic cancer cells (PANC-1), and the route of administration was intratumoral injection. The experimental groups were model control group and polypeptide or derivative thereof treatment groups (N1-N12). The drug dosage of the N1-N12 treatment group was 5mg/kg, once every other day, and the treatment time was 25 days.
substance,measurement,value
N1: polypeptide with the amino acid sequence set forth in SEQ ID NO: 1 (YRVRFLAKENVTQDAEDN),Weight of tumor (g) (mean ± SD),0.52 ± 0.13 g
same,Volume of tumor (mm^3) (mean ± SD),704.1 ± 152.43 mm^3
N2: SEQ ID NO: 1 with deletion of one amino acid (position 18) at the carboxyl terminal (YRVRFLAKENVTQDAED),Weight of tumor (g) (mean ± SD),0.72 ± 0.12 g
same,Volume of tumor (mm^3) (mean ± SD),761.37 ± 150.52 mm^3
N3: SEQ ID NO: 1 with deletion of position 18 and PEG modification at the amino terminal ({PEG}-YRVRFLAKENVTQDAED; reading uncertain),Weight of tumor (g) (mean ± SD),0.6 ± 0.1 g
same,Volume of tumor (mm^3) (mean ± SD),695.11 ± 111.9 mm^3
N4: SEQ ID NO: 1 with deletion of positions 15-18 and positions 1-3 (RFLAKENVTQD),Weight of tumor (g) (mean ± SD),0.62 ± 0.07 g
same,Volume of tumor (mm^3) (mean ± SD),673.03 ± 157.33 mm^3
N5: SEQ ID NO: 1 with addition of one amino acid at the carboxyl terminal and deletion of positions 1-3 (RFLAKENVTQDAEDNC),Weight of tumor (g) (mean ± SD),0.54 ± 0.1 g
same,Volume of tumor (mm^3) (mean ± SD),696.52 ± 127.05 mm^3
N6: SEQ ID NO: 1 with deletion of four amino acids at the carboxyl terminal (positions 15-18) (YRVRFLAKENVTQD),Weight of tumor (g) (mean ± SD),0.61 ± 0.07 g
same,Volume of tumor (mm^3) (mean ± SD),538.26 ± 121.04 mm^3
N7: SEQ ID NO: 1 with addition of one amino acid at the carboxyl terminal and substitution A15R (YRVRFLAKENVTQDREDNC),Weight of tumor (g) (mean ± SD),0.74 ± 0.09 g
same,Volume of tumor (mm^3) (mean ± SD),671.47 ± 150.71 mm^3
"N8: SEQ ID NO: 1 with deletion of positions 15-18 and positions 3, 4 and 11 (YRFLAKENTQD)",Weight of tumor (g) (mean ± SD),0.59 ± 0.11 g
same,Volume of tumor (mm^3) (mean ± SD),769.54 ± 160.54 mm^3
N9: SEQ ID NO: 1 with deletion of positions 15-18 and PEG modification at the amino terminal ({PEG}-YRVRFLAKENVTQD; reading uncertain),Weight of tumor (g) (mean ± SD),0.5 ± 0.09 g
same,Volume of tumor (mm^3) (mean ± SD),765.6 ± 105.04 mm^3
N10: SEQ ID NO: 1 with deletion of positions 15-18 and 1-3 and PEG modification at the carboxyl terminal (RFLAKENVTQD-{PEG}; reading uncertain),Weight of tumor (g) (mean ± SD),0.57 ± 0.11 g
same,Volume of tumor (mm^3) (mean ± SD),667.99 ± 188.73 mm^3
N11: SEQ ID NO: 1 with deletion of positions 15-18 and 1-3 and PEG modification at the amino terminal ({PEG}-RFLAKENVTQD; reading uncertain),Weight of tumor (g) (mean ± SD),0.62 ± 0.12 g
same,Volume of tumor (mm^3) (mean ± SD),785.02 ± 147.38 mm^3
N12: SEQ ID NO: 1 with deletion of position 18 and positions 1-2 (VRFLAKENVTQDAED),Weight of tumor (g) (mean ± SD),0.71 ± 0.09 g
same,Volume of tumor (mm^3) (mean ± SD),863.2 ± 129.61 mm^3
